Experimental data: patent publication US10041937B2, “Macrophage identification agent, and identification method, sorting method, evaluation method, screening method and kit using the macrophage identifier agent” (CANON KABUSHIKI KAISHA, priority 2013, dated 2018)

tested on: M1 macrophages and M2 macrophages differentiated from mouse bone marrow cells; assay: Subtype identification by staining and flow cytometry of M1 and M2 macrophages differentiated from mouse bone marrow cells; type: cell-based, Balb/c mouse; details: R=|FM1−FM2|/(WM1+WM2); compound 1 μM
Protocol: The culture of subtypes was performed according to a protocol described in NPL 7. Specifically, bone marrow cells collected from the femur of a Balb/c mouse of 8 to 10 weeks old were dispersed to a concentration of 1×10^6/mL in an IMDM containing 20% FBS and 1% P/S, and 1×10^7 cells were seeded in a 100 mm dish. After further adding an M-CSF (manufactured by Pepro Tech) thereto to a concentration of 50 ng/mL, the cells were incubated for 3 to 4 days in the presence of 5% CO2 at 37° C., so as to differentiate macrophage precursor cells to macrophages. After exchanging the medium, the M-CSF was added to a concentration of 50 ng/mL, and the incubation was performed for further 3 to 4 days in the presence of 5% CO2 at 37° C., and then, the resulting cells were differentiated to macrophage. By adding 200 ng of interferon-γ and 1 μg of […] (both manufactured by Pepro Tech) to the IMDM containing 5% FBS and 1% P/S, the cells were differentiated to the subtype M1. Besides, by adding 100 ng of IL-4 to the IMDM containing 5% FBS and 1% P/S, the cells were differentiated to the subtype M2. After performing the incubation for further 3 days in the presence of 5% CO2 at 37° C., the resultant was rinsed with PBS, and PBS containing 0.25% trypsin and 1 mM EDTA (ethylenediaminetetraacetic acid) was used for collecting, from the dish, the macrophages having been differentiated to the subtypes M1 and M2.
Thereafter, the tube was centrifuged at 180 G for 10 minutes to remove the supernatant, a dye for identifying dead cells (aqua fluorescent reactive dye, manufactured by Invitrogen; which is hereinafter sometimes abbreviated as aqua) was added thereto, and the resultant was incubated at 4° C. for 10 minutes. Subsequently, the tube was centrifuged at 180 G for 10 minutes to remove the supernatant, cells were suspended in a FACS buffer to be analyzed by using FACSCanto (trademark) II flow cytometry apparatus manufactured by BD.
The analysis was performed on a cell population showing a low signal for the aqua, so as to analyze a cell population from which dead cells were eliminated. […] A histogram was prepared by plotting fluorescence intensity obtained in the FITC channel on the abscissa and plotting the number of cells at each fluorescence intensity on the ordinate, which is shown in FIG. 2.
Histograms were prepared by plotting fluorescence intensities obtained in the respective channels on the abscissa and plotting the numbers of cells at each fluorescence intensity on the ordinate. A difference between a fluorescence intensity (FM1) at a peak top of the histogram of the M1 macrophage and a fluorescence intensity (FM2) at a peak top of the histogram of the M2 macrophage is divided by a sum of a peak width (WM1) of the histogram of the M1 macrophage and a peak width (WM2) of the histogram of the M2 macrophage, so as to obtain a resolution R, which was used as an index of the identification ability for a subtype (see the following expression (1)). Resolution R=|FM1−FM2|/(WM1+WM2) Expression (1)

SMILES	Resolution ratio R
CSc1ccc(N2c3ccc(/C=C4/SC(=S)N(CCC(=O)O)C4=O)cc3C3CCCC32)cc1 (centres unmarked) [(6)]	0.504
COC(=O)C(C)N1C(=O)/C(=C\c2ccc3c(c2)C2CCCC2N3c2ccc(OC)cc2)SC1=S (centres unmarked) [(7)]	0.567
CCCN1c2ccc(/C=C3/SC(=S)N(CCC(=O)O)C3=O)cc2C2CCCC21 (centres unmarked) [(9)]	0.828
O=C(O)CCN1C(=O)/C(=C\c2cc(Br)c3c(c2)C2CCCC2N3c2ccc(Br)cc2)SC1=S (centres unmarked) [(11)]	0.544
O=C(O)CCN1C(=O)/C(=C\c2ccc3c(c2)C2CCCC2N3c2ccccc2)SC1=S (centres unmarked) [(13)]	0.714
O=C(O)CCCCCN1C(=O)/C(=C\c2ccc3c(c2)C2CCCC2N3c2ccccc2)SC1=S (centres unmarked) [(17)]	0.577
CCOC(=O)CN1C(=O)/C(=C\c2ccc3c(c2)C2CCCC2N3c2ccc(C=C(c3ccccc3)c3ccccc3)cc2)SC1=S (centres unmarked) [(19)]	0.319
O=C(O)Cn1c(=O)/c(=C\c2ccc3c(c2)C2CCCC2N3c2ccc(C=C(c3ccccc3)c3ccccc3)cc2)s/c1=C1/CC(=S)N(Cc2ccccc2)C1=O (centres unmarked) [(20)]	0.290
CCOC(=O)CN1C(=O)/C(=C\c2ccc3c(c2)C2CCCC2N3c2ccc(OC)cc2)SC1=S (centres unmarked) [(21)]	0.351
COc1ccc2cc(N3c4ccc(/C=C5/SC(=S)N(CCC(=O)O)C5=O)cc4C4CCCC43)ccc2c1 (centres unmarked) [(22)]	0.389
O=C(O)CCC(C(=O)O)N1C(=O)/C(=C\c2ccc3c(c2)C2CCCC2N3c2ccccc2)SC1=S (centres unmarked) [(23)]	0.185

same assay, conditions: fluorescence intensity at peak top of histogram; compound 1 μM, 37° C., 30 minutes

SMILES	Peak position of M1 macrophage	Peak position of M2 macrophage
CSc1ccc(N2c3ccc(/C=C4/SC(=S)N(CCC(=O)O)C4=O)cc3C3CCCC32)cc1 (centres unmarked) [(6)]	26.5	50.4
COC(=O)C(C)N1C(=O)/C(=C\c2ccc3c(c2)C2CCCC2N3c2ccc(OC)cc2)SC1=S (centres unmarked) [(7)]	65.4	23.6
CCCN1c2ccc(/C=C3/SC(=S)N(CCC(=O)O)C3=O)cc2C2CCCC21 (centres unmarked) [(9)]	2.63	6.69
O=C(O)CCN1C(=O)/C(=C\c2cc(Br)c3c(c2)C2CCCC2N3c2ccc(Br)cc2)SC1=S (centres unmarked) [(11)]	30.5	16.2
O=C(O)CCN1C(=O)/C(=C\c2ccc3c(c2)C2CCCC2N3c2ccccc2)SC1=S (centres unmarked) [(13)]	7.74	20.4
O=C(O)CCCCCN1C(=O)/C(=C\c2ccc3c(c2)C2CCCC2N3c2ccccc2)SC1=S (centres unmarked) [(17)]	7.74	16.5
CCOC(=O)CN1C(=O)/C(=C\c2ccc3c(c2)C2CCCC2N3c2ccc(C=C(c3ccccc3)c3ccccc3)cc2)SC1=S (centres unmarked) [(19)]	0.90	0.64
O=C(O)Cn1c(=O)/c(=C\c2ccc3c(c2)C2CCCC2N3c2ccc(C=C(c3ccccc3)c3ccccc3)cc2)s/c1=C1/CC(=S)N(Cc2ccccc2)C1=O (centres unmarked) [(20)]	4.47	2.10
CCOC(=O)CN1C(=O)/C(=C\c2ccc3c(c2)C2CCCC2N3c2ccc(OC)cc2)SC1=S (centres unmarked) [(21)]	40.0	20.3
COc1ccc2cc(N3c4ccc(/C=C5/SC(=S)N(CCC(=O)O)C5=O)cc4C4CCCC43)ccc2c1 (centres unmarked) [(22)]	199	313
O=C(O)CCC(C(=O)O)N1C(=O)/C(=C\c2ccc3c(c2)C2CCCC2N3c2ccccc2)SC1=S (centres unmarked) [(23)]	1.10	1.48

same assay, conditions: rated from resolution R

SMILES	Evaluation of macrophage subtype identification
CSc1ccc(N2c3ccc(/C=C4/SC(=S)N(CCC(=O)O)C4=O)cc3C3CCCC32)cc1 (centres unmarked) [(6)]	A (The compound is very good in the subtype identification (namely, the resolution R is 0.5 or more))
COC(=O)C(C)N1C(=O)/C(=C\c2ccc3c(c2)C2CCCC2N3c2ccc(OC)cc2)SC1=S (centres unmarked) [(7)]	A (The compound is very good in the subtype identification (namely, the resolution R is 0.5 or more))
CCCN1c2ccc(/C=C3/SC(=S)N(CCC(=O)O)C3=O)cc2C2CCCC21 (centres unmarked) [(9)]	A (The compound is very good in the subtype identification (namely, the resolution R is 0.5 or more))
O=C(O)CCN1C(=O)/C(=C\c2cc(Br)c3c(c2)C2CCCC2N3c2ccc(Br)cc2)SC1=S (centres unmarked) [(11)]	A (The compound is very good in the subtype identification (namely, the resolution R is 0.5 or more))
O=C(O)CCN1C(=O)/C(=C\c2ccc3c(c2)C2CCCC2N3c2ccccc2)SC1=S (centres unmarked) [(13)]	A (The compound is very good in the subtype identification (namely, the resolution R is 0.5 or more))
O=C(O)CCCCCN1C(=O)/C(=C\c2ccc3c(c2)C2CCCC2N3c2ccccc2)SC1=S (centres unmarked) [(17)]	A (The compound is very good in the subtype identification (namely, the resolution R is 0.5 or more))
CCOC(=O)CN1C(=O)/C(=C\c2ccc3c(c2)C2CCCC2N3c2ccc(C=C(c3ccccc3)c3ccccc3)cc2)SC1=S (centres unmarked) [(19)]	B (the compound is good in the subtype identification (namely, the resolution R is 0.15 or more and less than 0.5))
O=C(O)Cn1c(=O)/c(=C\c2ccc3c(c2)C2CCCC2N3c2ccc(C=C(c3ccccc3)c3ccccc3)cc2)s/c1=C1/CC(=S)N(Cc2ccccc2)C1=O (centres unmarked) [(20)]	B (the compound is good in the subtype identification (namely, the resolution R is 0.15 or more and less than 0.5))
CCOC(=O)CN1C(=O)/C(=C\c2ccc3c(c2)C2CCCC2N3c2ccc(OC)cc2)SC1=S (centres unmarked) [(21)]	B (the compound is good in the subtype identification (namely, the resolution R is 0.15 or more and less than 0.5))
COc1ccc2cc(N3c4ccc(/C=C5/SC(=S)N(CCC(=O)O)C5=O)cc4C4CCCC43)ccc2c1 (centres unmarked) [(22)]	B (the compound is good in the subtype identification (namely, the resolution R is 0.15 or more and less than 0.5))
O=C(O)CCC(C(=O)O)N1C(=O)/C(=C\c2ccc3c(c2)C2CCCC2N3c2ccccc2)SC1=S (centres unmarked) [(23)]	B (the compound is good in the subtype identification (namely, the resolution R is 0.15 or more and less than 0.5))
